Test [1] has as its system Akt (T308 or S473 site). Put plainly: Western blot of Akt phosphorylation in transfected 293T cells. The test is classed as cell-based, human. To be noted: M-FRB12 plus F3-ΔPH.Akt, serum starved 24 hours, as early as 30 min after drug addition. The procedure:
293T cells seeded in 6-well plates were transiently transfected with 2 μg of different expression constructs in 6 μl FuGENE6 (Boehringer-Mannheim, Indianapolis, Ind.) in Opti-MEM-I medium for 24 hours followed by serum starvation for an additional 24 hours. Cells were then treated with different agents and harvested at different time points. After washing (2×) in ice-cold PBS, cell pellets were lysed in RIPA buffer containing protease inhibitors (CytoSignal, Irvine, Calif.). Equal amounts of protein from each sample were separated on 10% SDS-PAGE gels and transferred to PVDF membrane (Amersham Pharmacia Biotech, Piscataway, N.J.). Phospho-specific antibodies against Akt (T308 or S473 site) (Cell Signaling, Beverly, Mass.) were used for measuring Akt phosphorylation, and the signal was detected by AP-conjugated secondary antibodies (NEB, Beverly, Mass.) and CDP-Star chemiluminescence reagent (NEN life science, Boston, Mass.).
Briefly, 293T cells were transiently co-transfected with M-FRB1 2 and F3-ΔPH.Akt expression plasmids. After 24 hours, transfected cells were serum starved for another 24 hours and then treated with AP22783.
On the technique in general: A western blot detects proteins with antibodies after separation by electrophoresis.

Test [2] concerns caspase-3 and PARP in Jurkat.iAkt cells. Put plainly: Caspase-3 activation and PARP cleavage by immunoblotting.
Method: Next, caspase-3 activation and PARP substrate cleavage were measured by immunoblotting.
Test [3] concerns F3-ΔPH.Akt kinase. Put plainly: Immunoprecipitation and in vitro Akt kinase assay (GSK3α/β crosstide). To be noted: Jurkat.iAkt serum starved 24 hours, treated 30 min, anti-HA immunoprecipitate. The test is classed as biochemical. The procedure:
Jurkat.iAktb were serum starved for 24 hours followed by treatment with AP22783 or serum for 30 min. Cells were then lysed in a lysis buffer provided with the Akt Kinase Assay kit (Cell Signaling, Beverly, Mass.), and Fpk3-ΔPH.AKT-E was immunoprecipitated with polyclonal anti-HA antibody. Antibody-antigen complexes were washed three times in lysis buffer and once in kinase buffer. In vitro kinase assays for Akt were performed using a GSK3α/β “crosstide”. The extent of crosstide phosphorylation was determined by anti-GSKα/β immunoblotting according to the manufacturer's protocol.
To further measure the induction of Akt enzymatic activity, Jurkat.iAkt cells were serum starved for 24 hours and thereafter treated with AP22783 or serum for 30 min. Chimeric F3-ΔPH.Akt.-kinase was immunoprecipitated with the anti-HA antibody and Akt kinase activity was measured using an in vitro kinase assay that uses a GSK3α/β “crosstide” as a substrate. The level of phosphorylated GSK3 crosstides was determined by immunoblotting with phospho-specific antibody against GSK3-α21/β9.

For test [4], the system named is Jurkat.iAkt cells. Put plainly: Apoptosis by propidium iodide staining and flow cytometry (hypodiploid cells). It counts as cell-based, human. The following applies: for etoposide-induced cell death: etoposide 0.3-100 μM, 12 hours. The method, then:
Jurkat.iAkt were serum starved for 24 hours followed by pre-treatment with AP22783 in 0, 2 or 10% FBS for 40 min. After incubation with apoptosis-inducing stimuli for the periods indicated, cells were harvested and washed twice in ice-cold PBS and fixed in 70% ethanol. Cells were stained in 50 μg/ml propidium iodide and 100 μg/mlRNase A for 30 min at 37° C., and hypodiploid cells were quantitated by flow cytometry using a Beckman-Coulter EPICS XL-MCL.
Jurkat.iAkt cells were given various apoptotic insults in the presence or absence of rapalogs. Initially, the protective effects of iAkt were studied on staurosporine (STS)-induced apoptosis. […] Following serum starvation for 24 hours, Jurkat.iAkt cells were treated with 0, 0.5, or 2.0 μM STS with or without AP22783 (400 nM) for 6 hours in the absence of serum. Cell death was monitored using propidium iodide (PI) staining and flow cytometry (FCM) by quantitation of subdiploid cells.
The effects of AP22783 treatment following PI3K inhibition of Jurkat.iAkt cell were studied.
Finally, the anti-apoptotic effects of iAkt on protection from direct DNA damaging agents were examined. The anti-tumor agent, etoposide (VP16), is widely used as a chemotherapeutic drug that works by inhibiting DNA topoisomerase II, which can induce apoptosis in a variety of cell types. […] Again, the experiments were carried out in two different culture conditions with low or high FBS levels.

Test [5] has as its system endogenous Akt and iAkt. Put plainly: Akt phosphorylation in Jurkat.iAkt cells after kinase inhibitor pretreatment. It counts as cell-based, human. The following applies: 30 min inhibitor pretreatment, then AP22783 30 min. The method, then: Jurkat.iAkt cells were serum starved for 24 hours followed by 30 min pretreatment with PI3K inhibitors, wortmannin and LY294002, or MEK inhibitor, PD98059, as a control. After inhibitor pretreatment, AP22783 was added to the media for another 30 min to mobilize membrane recruitment of iAkt.

Test [6] deals with NF-κB. Put plainly: NF-κB/SEAP reporter assay in Jurkat-TAg cells. It counts as cell-based, human. To be noted: R0318220 1 μM.

Molecules are shown by their SMILES.

As for `O=C(O)COc1ccccc1O` [AP22783], the “phosphorylation of iAkt at S473 and T308” value in test [1] is “greatly stimulated”. Also, in test [2] (with AP22783), the “STS-induced caspase-3 activation” value was “blocked”, the “high-dose STS-induced PARP cleavage” value is “reduced” and the “low-dose STS-induced PARP cleavage” value is given as “blocked”. Moreover, the “Akt kinase activity (GSK3 crosstide phosphorylation)” value in test [3] is on record as “associated with GSK3 phosphorylation”. In addition, the apoptotic cells in test [4] (2 μM STS with AP22783 400 nM, 6 hours, no serum, without background correction) was 17%. Besides, the “PI3K inhibitor-induced cell death” value in test [4] (AP22783 400 nM with wortmannin or LY294002, 2% or 10% FBS, 9 hours) is recorded as “almost totally blocked”. For the same compound, in test [4] (AP22783 400 nM, 2% or 10% FBS, 6 hours), the CH-11-triggered apoptosis result was “rescued cells from CH-11-triggered apoptosis”. The etoposide-induced cell death entry in test [4] (AP22783 400 nM, high FBS) is listed as “reduced etoposide-induced cell death efficiently”. In test [4] (AP22783 400 nM, low FBS), the etoposide-induced cell death entry is on record as “lesser, but reproducible level of protection”. The “STS-induced toxicity (apoptosis)” value in test [4] (low-dose STS (0.5 μM) with AP22783 400 nM, 6 hours, no serum) is “fully blocked”.

On to `COc1cccc(-c2cc(=O)c3ccccc3o2)c1N` [PD98059], for which, in test [5], the “endogenous Akt phosphorylation at T308” value was “no discernable effect” and the iAkt phosphorylation entry is reported as “no discernable effect”.

With `Cn1cc(C2=C(c3cn(CCCSC(=N)N)c4ccccc34)C(=O)NC2=O)c2ccccc21` [R0318220], the “NF-κB activation by M-Akt plus PKC” value in test [6] is “complete inhibition of NF-κB”.

For the compound `CN[C@@H]1C[C@H]2O[C@@](C)([C@@H]1OC)n1c3ccccc3c3c4c(c5c6ccccc6n2c5c31)C(=O)NC4` [STS, staurosporine], the procaspase-3 level entry in test [2] (STS at high-dose) is “significant reduction of procaspase-3”. The PARP cleavage result in test [2] (STS at low- and high-dose) is listed as “dramatic PARP cleavage”. Moreover, the apoptotic cells amounted to 36% in test [4] (2 μM STS, 6 hours, no serum, without AP22783, without background correction) and 19.4% in test [4] (low-dose STS (0.5 μM), 6 hours, no serum, without AP22783). In addition, in test [4] (STS 0, 0.5 or 2.0 μM, 6 hours, no serum), the cell death entry was “induced cell death in a dose-response manner”.

The record behind these values is patent publication US20030144204A1, “Akt-based inducible survival switch” (Baylor College of Medicine, priority 2001, published 2003).
